Results reported in patent US10335482B2, “Method of inducing an anti-HIV-1 immune response comprising administering a C5/TM-GP41 peptide dimer” (priority 2012, dated 2019).
Bridge positions count the residues as written; N and C are the ends. Ends that are not written are not given here. I, II: the chains in the order shown.

Assays:
[1] = tested on: Anti-C5/gp41 sera from BI400-B immunized rabbits; experiment: Competitive ELISA for rabbit sera after immunization with BI400-B; assay type: binding; conditions: antigen 10-1000 μM preincubated with rabbit serum; FIG. 3
Method: 50-100 μl of a mixture of BI400-015 and -201 (pre-incubated in Coating buffer—0.05M Na2CO3 pH9.6; denoted CB—in cold at 16 μg/ml for each peptide 1-3 days prior to coating) or just CB (background control) was used for coating wells in microtiter plates at 4° C. overnight. Plates were then washed 3× with washing buffer (PBS+1% v/v Triton-X100; denoted WB), followed by 2 h blocking at room temperature (RT) with 200 μl/well of blocking buffer (PBS+1% w/v BSA). Plates were then washed 3× with WB, followed by 1 h incubation at 37° C. with 60-100 μl/well of added rabbit serum samples (diluted 1:10-1:250 final concentration) preincubated together (4° C. overnight) with serial dilutions (ranging from 10-1000 μM final concentration) of 400-SEQ.B, BI400-015, BI400-201, BI400-204d, recombinant gp41 (Shin-Won Scientific, SWO 102 gp41), BI301-23 (irrelevant protein; control), no peptide (i.e. PBS; control), LTNP-sera pools (diluted 1:10 final concentration), or Blood donor sera-pools (diluted 1:10 final concentration; control). Plates were then washed 6× with WB, followed by 1 h incubation at RT with 70 μl/well of Alkaline Phosphatase-conjugated Goat-anti-Rabbit-Ig (6 μg/ml; Dako D0487). […] Plates were finally quenched by adding 100 μl/well of Quench solution (0.1M TRIS+0.1M EDTA+0.5M NaOH+0.01% w/v NaN3; pH14), followed by ELISA reader (ASYS UVM 340) at 550 nm.

HIV specific T-cells = conditions: IMiD present during stimulation with dendritic cells presenting Gag- or Nef-specific peptides; cited from earlier work
[2] = Toxicity of the dipeptide in mice; assay type: in vivo, NMFI female mice; conditions: injection, 100 μg per kg bodyweight, 4 mg/ml in 0.9% NaCl
Method: The dipeptide of Example 20 was diluted in 0.9% NaCl to a test solution concentration of 4 mg/ml. The peptide was administered by injection to NMFI female mice in a dose of 100 μg per kg bodyweight.

For “GGAIVNGSLADDDIVI [204d, peptide derived from C2]”, the “inhibition of antibody binding to C5/gp41 (015/201) by antigen” value [1] was “could be inhibited”.
In the case of “201: gp41 peptide (DRPEGIEEEGGERDR) [compound 201]”, the “inhibition of antibody binding to C5/gp41 (015/201) by antigen” value [1] is reported as “could be inhibited”.
In the case of `Nc1cccc2c1CN(C1CCC(=O)NC1=O)C2=O` (centres unmarked) [Lenalidomide], the “function of the T-cells” value (HIV specific T-cells) is listed as “a number of improvements in the function of the T-cells”.
For `Nc1cccc2c1C(=O)N(C1CCC(=O)NC1=O)C2=O` (centres unmarked) [pomalidomide], the “function of the T-cells” value (HIV specific T-cells) is listed as “a number of improvements in the function of the T-cells”.
With “I: WIIPGLNPLVGGGKLYSPTSILCG-NH2 / II: KALGPGATLQTPWTACQGVG-NH2 (disulfide I:23-II:16) [Example 20]” the toxicological effects [2] was “No toxicological effects were observed”.
